Ki data for 17 molecules are collected here from patent US10195201B2, “Heteroaryl-pyrimidinone compounds as PDE2 inhibitors” (Merck Sharp & Dohme Corp., priority 2015, dated 2019).

By Ki is commonly meant the dissociation constant of the complex between target and ligand, obtained from inhibition or displacement.

Chain of human PDE2A1 (O00408 other isoform, or with tags, fused parts or gaps): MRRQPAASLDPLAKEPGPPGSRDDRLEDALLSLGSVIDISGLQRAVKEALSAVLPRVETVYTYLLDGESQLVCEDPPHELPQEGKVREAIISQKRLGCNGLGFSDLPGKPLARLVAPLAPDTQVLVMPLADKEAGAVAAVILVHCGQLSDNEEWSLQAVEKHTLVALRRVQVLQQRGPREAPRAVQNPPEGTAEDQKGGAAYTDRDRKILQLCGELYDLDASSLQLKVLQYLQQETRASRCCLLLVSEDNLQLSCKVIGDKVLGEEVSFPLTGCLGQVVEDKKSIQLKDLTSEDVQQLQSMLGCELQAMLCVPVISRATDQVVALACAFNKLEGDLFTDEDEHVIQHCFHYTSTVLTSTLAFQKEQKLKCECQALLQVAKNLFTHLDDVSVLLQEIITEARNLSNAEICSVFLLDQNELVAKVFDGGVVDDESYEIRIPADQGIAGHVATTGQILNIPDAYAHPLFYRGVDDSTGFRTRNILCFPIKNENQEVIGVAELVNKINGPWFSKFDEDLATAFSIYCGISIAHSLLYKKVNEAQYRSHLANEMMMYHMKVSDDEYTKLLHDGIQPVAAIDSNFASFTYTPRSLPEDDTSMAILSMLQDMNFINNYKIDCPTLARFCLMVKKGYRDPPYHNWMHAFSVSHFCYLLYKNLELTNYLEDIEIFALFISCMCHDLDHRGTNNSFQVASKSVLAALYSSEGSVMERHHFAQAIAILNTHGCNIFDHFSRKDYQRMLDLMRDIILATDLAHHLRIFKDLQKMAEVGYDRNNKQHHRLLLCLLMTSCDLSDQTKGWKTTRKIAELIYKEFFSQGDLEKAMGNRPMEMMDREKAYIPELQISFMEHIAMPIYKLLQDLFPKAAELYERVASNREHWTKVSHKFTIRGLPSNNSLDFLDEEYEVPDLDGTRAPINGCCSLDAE
Chain of Rhesus PDE2A3 (B3VTJ2 1-941): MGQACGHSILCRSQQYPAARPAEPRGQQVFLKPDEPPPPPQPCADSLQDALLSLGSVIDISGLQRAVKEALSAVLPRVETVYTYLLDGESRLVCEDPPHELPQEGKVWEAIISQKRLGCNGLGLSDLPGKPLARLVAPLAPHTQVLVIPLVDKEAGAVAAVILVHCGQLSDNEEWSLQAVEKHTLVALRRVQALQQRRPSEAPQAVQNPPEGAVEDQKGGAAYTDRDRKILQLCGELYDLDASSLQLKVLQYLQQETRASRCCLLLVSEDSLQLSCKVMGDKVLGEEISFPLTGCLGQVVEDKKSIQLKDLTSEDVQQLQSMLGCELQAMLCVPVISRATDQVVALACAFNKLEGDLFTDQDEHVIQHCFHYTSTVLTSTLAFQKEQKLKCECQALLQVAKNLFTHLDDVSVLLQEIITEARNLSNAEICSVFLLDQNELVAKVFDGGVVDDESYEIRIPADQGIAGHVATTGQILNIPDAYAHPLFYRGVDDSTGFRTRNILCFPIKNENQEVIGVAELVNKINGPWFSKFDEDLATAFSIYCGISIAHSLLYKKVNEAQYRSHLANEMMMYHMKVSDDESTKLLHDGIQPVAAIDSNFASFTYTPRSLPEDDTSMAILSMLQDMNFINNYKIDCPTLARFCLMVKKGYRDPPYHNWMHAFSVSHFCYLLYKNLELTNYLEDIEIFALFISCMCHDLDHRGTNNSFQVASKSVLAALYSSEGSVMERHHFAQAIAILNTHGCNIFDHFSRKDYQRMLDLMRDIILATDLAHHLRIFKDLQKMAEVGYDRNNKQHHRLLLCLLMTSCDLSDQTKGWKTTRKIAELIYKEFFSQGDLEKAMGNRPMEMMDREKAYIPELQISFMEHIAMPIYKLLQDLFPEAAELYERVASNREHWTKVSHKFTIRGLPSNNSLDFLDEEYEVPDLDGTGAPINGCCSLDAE

The first test has as its target human PDE2A1 (Homo sapiens (Human), UniProt O00408). Briefly: PDE2 fluorescence polarization (IMAP FP) inhibition assay, human enzyme. It counts as biochemical. As to conditions: LabA; read-out: hPDE2 Ki (nM) LabA. As to the method: (§1) The activity of the compounds in accordance with the present invention as PDE2 inhibitors may be readily determined using a fluorescence polarization (FP) methodology (Huang, W., et al., J. Biomol Screen, 2002, 7: 215).
Selectivity for PDE2, as compared to other PDE families, was assessed using the IMAPR technology. Human PDE10A2 enzyme was prepared from cytosolic fractions of transiently transfected HEK cells. All other PDE's were GST Tag human enzyme expressed in insect cells and were obtained from BPS Bioscience (San Diego, Calif.): PDE1A (Cat#60010), human PDE2A1(Cat#60020), PDE3A (Cat#60030), PDE4A1A (Cat#60040), PDE5A1 (Cat#60050), PDE6C (Cat#60060), PDE7A (Cat#60070), PDE8A1 (Cat#60080), PDE9A2 (Cat#60090), PDE11A4 (Cat#60110).
Assays for PDE 1 through 11 were performed in parallel at room temperature in 384-well microtiter plates with an incubation volume of 20.2 μL. Solutions of test compounds were prepared in DMSO and serially diluted with DMSO to yield 30 μL of each of ten solutions differing by 3-fold in concentration, at 32 serial dilutions per plate. […] A Labcyte POD 810 (Labcyte, Sunnyvale, Calif.) was used to dispense 200 nL from each well of the titration plate to make eleven copies of the assay plate for each titration, one copy for each PDE enzyme. A solution of each enzyme (dilution from aliquots, sufficient to produce 20% substrate conversion) and a separate solution of FAM-labeled cAMP or FAM-labeled cGMP from Molecular Devices (Sunnyvale, Calif., product # R7506 or cGMP#R7508), at a final concentration of 50 nM were made in the assay buffer (10 mM Tris HCl, pH 7.2, 10 mM MgCl2, 0.05% NaN3 0.01% Tween-20, and 1 mM DTT). Note that the substrate for PDE2 is 50 nM FAM cAMP containing 1000 nM of cGMP. The enzyme and the substrate were then added to the assay plates in two consecutive additions of 10 μL and then shaken to mix. The reaction was allowed to proceed at room temperature for 60 minutes. A binding solution was then made from the kit components, comprised of 80% Solution A, 20% Solution B and binding reagent at a volume of 1/600 the total binding solution. The enzymatic reaction was stopped by addition of 60 μL of the binding solution to each well of the assay plate. The plates were sealed and shaken for 10 seconds. The plates were incubated at room temperature for one hour, then the parallel and perpendicular fluorescence was measured using a Tecan Genios Pro plate reader (Tecan, Switzerland). The apparent inhibition constants for the compounds against all 11 PDE's was determined from the parallel and perpendicular fluorescent readings as described for PDE10 FP assay using the following apparent KM values for each enzyme and substrate combination: PDE1A (FAM cGMP) 70 nM, human PDE2A1 (FAM cAMP) 10,000 nM, PDE3A (FAM cAMP) 50 nM, PDE4A1A (FAM cAMP) 1500 nM, PDE5A1 (FAM cGMP) 400 nM, PDE6C (FAM cGMP) 700 nM, PDE7A (FAM cAMP) 150 nM, PDE8A1 (FAM cAMP) 50 nM, PDE9A2 (FAM cGMP) 60 nM, […] (FAM cAMP) 150 nM, PDE11A4 (FAM cAMP) 1000 nM. The intrinsic PDE2 inhibitory activity of a compound which may be used in accordance with the present invention may be determined by these assays. […]
(In general: Polarisation of emitted light reports the rotation of a fluorescent probe.)
Consider `Cc1nc(-c2cn([C@H](C)c3ccc(C(F)(F)F)cc3F)cn2)cc(=O)[nH]1` (single isomer, unassigned) [Example 15], for which the Ki stood at 21 nM.

Staying with this test, now noted: LabB; read-out: hPDE2 Ki (nM) LabB.
As for `Cc1nc(-c2cc(C(C)c3ccc(OC(F)(F)F)c(F)c3)ncn2)cc(=O)[nH]1` (single isomer, unassigned) [Example 41, (S)- or (R)-6′-(1-(3-fluoro-4-(trifluoro-methoxy)phenyl)ethyl)-2-methyl-[4,4′-bipyrimidin]-6(1H)-one], the Ki is 212 nM.

For the molecule `Cc1nc(-c2cc(C(C)c3ccc(C(F)F)c(F)c3)ncn2)cc(=O)[nH]1` (single isomer, unassigned) [Example 39, (S)- or (R)-6′-(1-(4-(difluoro-methyl)-3-fluoro-phenyl)ethyl)-2-methyl-[4,4′-bipyrimidin]-6(1H)-one], the Ki stood at 174 nM.

On to `Cc1nc(-c2cc(C(C)c3ccc(OC(F)(F)F)cc3)ncn2)cc(=O)[nH]1` (single isomer, unassigned) [Example 45, (S)- or (R)-2-methyl-6′-(1-(4-(trifluoro-methoxy)phenyl)ethyl)-[4,4′-bipyrimidin]-6(1H)-one], for which the Ki is 194 nM.

For the molecule `Cc1nc(-c2cc(C(C)c3ccc(C(C)(F)F)cc3)ncn2)cc(=O)[nH]1` (single isomer, unassigned) [Example 37, (S)- or (R)-6′-(1-(4-(1,1-difluoro-ethyl)phenyl)ethyl)-2-methyl-[4,4′-bipyrimidin]-6(1H)-one], the Ki amounted to 65 nM.

Regarding `Cc1nc(-c2nnc([C@H](C)c3ccc(C(F)(F)F)cc3F)s2)cc(=O)[nH]1` (single isomer, unassigned) [Example 5], the Ki is 18 nM.

With `Cc1nc(-c2cc(C(C)c3ccc(OC(F)(F)F)c(F)c3)ncn2)cc(=O)[nH]1` (single isomer, unassigned) [Example 40, (R)- or (S)-6′-(1-(3-fluoro-4-(trifluoro-methoxy)phenyl)ethyl)-2-methyl-[4,4′-bipyrimidin]-6(1H)-one], the Ki came out at 1.8 nM.

Take `Cc1nc(-c2cc([C@@H](C)c3ccc(C(F)(F)F)cc3F)ncn2)cc(=O)[nH]1` (single isomer, unassigned) [Example 31]: the inhibition constant (Ki) was 16 nM.

With `Cc1nc(-c2cc(C(C)c3ccc(OC(F)F)c(F)c3)ncn2)cc(=O)[nH]1` (single isomer, unassigned) [Example 34, (R)- or (S)-6′-(1-(4-(difluoro-methoxy)-3-fluorophenyl)ethyl)-2-methyl-[4,4′-bipyrimidin]-6(1H)-one], the Ki amounted to 13 nM.

Turning to `Cc1nc(-c2cc([C@H](C)c3ccc(C(C)(C)O)cc3)ncn2)cc(=O)[nH]1` (single isomer, unassigned) [Example 46], the Ki amounted to 890 nM.

With `Cc1nc(-c2cc(C(C)c3ccc(OC(F)(F)F)cc3)ncn2)cc(=O)[nH]1` (single isomer, unassigned) [Example 44, (R)- or (S)-2-methyl-6′-(1-(4-(trifluoro-methoxy)phenyl)ethyl)-[4,4′-bipyrimidin]-6(1H)-one], the inhibitory constant (Ki) was 4.1 nM.

`Cc1nc(-c2cc([C@H](C)c3ccc(C(C)(C)O)cc3)ncn2)cc(=O)[nH]1` (single isomer, unassigned) [Example 47]: the Ki is 1720 nM.

On to `Cc1nc(-c2cc(C(C)c3ccc(C(F)(F)F)cc3)ncn2)cc(=O)[nH]1` (single isomer, unassigned) [Example 33], for which the Ki was 20 nM.

As to `Cc1nc(-c2cc(C(C)c3ccc(C(C)(F)F)cc3)ncn2)cc(=O)[nH]1` (single isomer, unassigned) [Example 36, (R)- or (S)-6′-(1-(4-(1,1-difluoro-ethyl)phenyl)ethyl)-2-methyl-[4,4′-bipyrimidin]-6(1H)-one], the Ki was determined as 20 nM.

Consider `Cc1nc(-c2cc(C(C)c3ccc(C(F)F)c(F)c3)ncn2)cc(=O)[nH]1` (single isomer, unassigned) [Example 38, (R)- or (S)-6′-(1-(4-(difluoro-methyl)-3-fluoro-phenyl)ethyl)-2-methyl-[4,4′-bipyrimidin]-6(1H)-one], for which the Ki came to 30 nM.

In the case of `Cc1nc(-c2cc(C(C)c3ccc(OC(F)F)c(F)c3)ncn2)cc(=O)[nH]1` (single isomer, unassigned) [Example 35, (S)- or (R)-6′-(1-(4-(difluoro-methoxy)-3-fluorophenyl)ethyl)-2-methyl-[4,4′-bipyrimidin]-6(1H)-one], the Ki was 232 nM.

With `Cc1nc(-c2cc([C@@H](C)c3ccc(C(F)(F)F)cc3F)ncn2)cc(=O)[nH]1` (single isomer, unassigned) [Example 30], the Ki came to 39 nM.

Another test concerns the target Rhesus PDE2A3 (Macaca mulatta, UniProt B3VTJ2). Briefly: PDE2 fluorescence polarization (IMAP FP) inhibition assay, rhesus enzyme. It counts as biochemical, rhesus macaque. As to conditions: LabA; read-out: rhPDE2 Ki (nM) LabA. As to the method: as §1
In a typical experiment the PDE2 inhibitory activity of the compounds of the present invention was determined in accordance with the following experimental method. Rhesus PDE2A3 was amplified from rhesus macaque brain cDNA (Biochain Institute, Hayward, Calif.) using primers based on human PDE2A sequence (accession NM_002599.3) where the forward primer containing a Kozak consensus was 5′-[…]-3′ and the reverse primer was 5′-[…]-3′. Amplification with Easy-A High-Fidelity PCR cloning enzyme (Stratagene, La Jolla, Calif.) was 95° C. for 2 minutes followed by thirty three cycles of 95° C. for 40 seconds, 52° C. for 30 seconds, and 72° C. for 2 minutes 48 seconds. Final extension was 72° C. for 7 minutes. The PCR product was TA cloned into pcDNA3.3-TOPO (Invitrogen, Carlsbad, Calif.) according to standard protocol. A consensus sequence was developed from multiple clones and then deposited into GenBank (EU812167). AD293 cells (Stratagene, La Jolla, Calif.) with 70-80% confluency were transiently transfected with rhesus PDE2A3/pcDNA3.3-TOPO using Lipofectamine 2000 according to manufacturer specifications (Invitrogen, Carlsbad, Calif.). Cells were harvested 48 hours post-transfection and lysed by sonication (setting 3, 10×5 sec pulses) in a buffer containing 20 mM HEPES pH 7.4, 1 mM EDTA and Complete Protease Inhibitor Cocktail Tablets (Roche, Indianapolis, Ind.). Lysate was collected by centrifugation at 75,000×g for 20 minutes at 4° C. and supernatant utilized for evaluation of PDE2 activity. The fluorescence polarization assay for cyclic nucleotide phosphodiesterases was performed using an IMAP® FP kit supplied by Molecular Devices, Sunnyvale, Calif. (product # R8139). […] Assays were performed at room temperature in 384-well microtiter plates with an incubation volume of 20.2 μL. Solutions of test compounds were prepared in DMSO and serially diluted with DMSO to yield 8 μL of each of 10 solutions differing by 3-fold in concentration, at 32 serial dilutions per plate. […] 0% of inhibition is determined by using DMSO (1% final concentrations).
A Labcyte Echo 555 (Labcyte, Sunnyvale, Calif.) is used to dispense 200 nL from each well of the titration plate to the 384 well assay plate. Ten microliters of a solution of enzyme (1/2000 final dilution from aliquots; sufficient to produce 20% substrate conversion) was added to the assay plate. Next 10 uL of a separate solution of the substrate FAM-labeled cAMP (50 nM final concentration product # R7506 from Molecular Devices) and the activator cGMP (1 uM final concentration), prepared in the assay buffer (10 mM Tris HCl, pH 7.2, 10 mM MgCl2, 0.05% NaN3 0.01% Tween-20, and 1 mM DTT) was added to the assay plate and shaken to mix. The reaction is allowed to proceed at room temperature for 60 minutes. A binding solution is then made from the kit components, comprised of 80% Solution A, 20% Solution B and binding reagent at a volume of 1/600 the total binding solution. The enzymatic reaction is stopped by addition of 60 μL of the binding solution to each well of the assay plates and the plates are sealed and shaken for 30 seconds. The plate was incubated at room temperature for at least one hour prior to determining the fluorescence polarization (FP). The parallel and perpendicular fluorescence of each well of the plate was measured using a Tecan Genios Pro plate reader (Tecan, Switzerland) or Perkin Elmer EnVision™ plate reader (Waltham, Mass.). Fluorescence polarization (mP) was calculated from the parallel (S) and perpendicular (P) fluorescence of each sample well and the analogous values for the median control well, containing only substrate (So and Po), using the following equation: Polarization (mP)=1000*(S/So−P/Po)/(S/So+P/Po).
As for `Cc1nc(-c2cn([C@H](C)c3ccc(C(F)(F)F)cc3F)cn2)cc(=O)[nH]1` (single isomer, unassigned) [Example 15], the Ki stood at 24 nM.

Still in this test, the particulars now being: LabB; read-out: rhPDE2 Ki (nM) LabB.
As to `Cc1nc(-c2cn([C@H](C)c3ccc(C(F)(F)F)cc3F)cn2)cc(=O)[nH]1` (single isomer, unassigned) [Example 15], the Ki is 46 nM.

In the case of `Cc1nc(-c2nnc([C@H](C)c3ccc(C(F)(F)F)cc3F)s2)cc(=O)[nH]1` (single isomer, unassigned) [Example 5], the Ki came to 19 nM.
